# Results from patent US11261177B2, “Benzoxazinone derivatives useful as herbicides” (REDAG CROP PROTECTION LTD, priority 2017, dated 2022).
# Experiments:
# Type in all cases: in vivo
# Lolium perenne [1] = assay: Post-emergence herbicidal assay, 96 cell trays, glasshouse; details: 168 h, Lollium, assessed 7 days after treatment, read-out: % control of plant growth; for pest or weed control at 200 g/ha: 0.2 kg/ha; for pest or weed control at 1000 g/ha: 1 kg/ha; for pest or weed control at 5000 g/ha: 5 kg/ha
# Procedure: (§1) The compounds were screened at three concentrations (0.2, 1 and 5 kg/ha) against 2 weed species (Stellaria media—Chickweed and Lolium perenne). The seeds were sown in the cells of 96 cell trays (4-6 seeds per cell). For the pre-emergence assay, 75 μL of a suspension of the test compound, at the above doses, was added on top of the soil 1 day after sowing. For the post-emergence assay, the seedlings were sprayed with 200 μL of a suspension of the test compound two weeks after sowing. The formulation used is 25% acetone and 75% water/0.01% Tween 20. Each treatment was replicated three times. The plants were kept in a glasshouse (uncontrolled conditions) and assessed 7 days after treatment. A small number of compounds were tested in a first trial. A larger number of compounds were tested in a second trial. The assessment was based on the % control of plant growth in each cell.
# [2] = system: Stellaria media—Chickweed; assay: as above; details: 168 h, assessed 7 days after treatment, read-out: % control of plant growth; for pest or weed control at 200 g/ha: 0.2 kg/ha; for pest or weed control at 1000 g/ha: 1 kg/ha; for pest or weed control at 5000 g/ha: 5 kg/ha
# Procedure: as §1
# Lolium perenne [3] = assay: Pre-emergence herbicidal assay, 96 cell trays, glasshouse; details: 168 h, Lollium, assessed 7 days after treatment, read-out: % control of plant growth; for pest or weed control at 200 g/ha: 0.2 kg/ha; for pest or weed control at 1000 g/ha: 1 kg/ha; for pest or weed control at 5000 g/ha: 5 kg/ha
# Procedure: as §1
# [4] = system: Stellaria media—Chickweed; assay: as above; details: 168 h, assessed 7 days after treatment, read-out: % control of plant growth; for pest or weed control at 200 g/ha: 0.2 kg/ha; for pest or weed control at 1000 g/ha: 1 kg/ha; for pest or weed control at 5000 g/ha: 5 kg/ha
# Procedure: as §1
SMILES,pest or weed control at 200 g/ha (Lolium perenne [1]; second trial (Table 2)) [%],pest or weed control at 1000 g/ha (Lolium perenne [1]; second trial (Table 2)) [%],pest or weed control at 5000 g/ha (Lolium perenne [1]; second trial (Table 2)) [%],pest or weed control at 200 g/ha ([2]; second trial (Table 2)) [%],pest or weed control at 1000 g/ha ([2]; second trial (Table 2)) [%],pest or weed control at 5000 g/ha ([2]; second trial (Table 2)) [%],other results
"C#CCN1C(=O)C2(CC2)Oc2cc(F)c(-n3c(=O)n(C)c(=S)n(C)c3=O)cc21 [Comparative Example, 3-(7-Fluoro-3-oxo-4-(prop-2-yn-1-yl)-3,4-dihydrospiro[benzo[b][1,4]oxazine-2,1′-cyclopropan]-6-yl)-1,5-dimethyl-6-thioxo-1,3,5-triazinane-2,4-dione, reference compound]",20 to 80,20 to 80,80 to 100,20 to 80,80 to 100,80 to 100,pest or weed control at 200 g/ha (Lolium perenne [1]; first trial (Table 1)): 20 to 80%; pest or weed control at 1000 g/ha (Lolium perenne [1]; first trial (Table 1)): 20 to 80%; pest or weed control at 5000 g/ha (Lolium perenne [1]; first trial (Table 1)): 80 to 100%; pest or weed control at 200 g/ha ([2]; first trial (Table 1)): < 20%; pest or weed control at 1000 g/ha ([2]; first trial (Table 1)): 20 to 80%; pest or weed control at 5000 g/ha ([2]; first trial (Table 1)): 20 to 80%; pest or weed control at 200 g/ha (Lolium perenne [3]; first trial (Table 1)): < 20%; pest or weed control at 1000 g/ha (Lolium perenne [3]; first trial (Table 1)): 20 to 80%; pest or weed control at 5000 g/ha (Lolium perenne [3]; first trial (Table 1)): 80 to 100%; pest or weed control at 200 g/ha (Lolium perenne [3]; second trial (Table 2)): < 20%; pest or weed control at 1000 g/ha (Lolium perenne [3]; second trial (Table 2)): 20 to 80%; pest or weed control at 5000 g/ha (Lolium perenne [3]; second trial (Table 2)): 80 to 100%; pest or weed control at 200 g/ha ([4]; first trial (Table 1)): < 20%; pest or weed control at 1000 g/ha ([4]; first trial (Table 1)): < 20%; pest or weed control at 5000 g/ha ([4]; first trial (Table 1)): < 20%; pest or weed control at 200 g/ha ([4]; second trial (Table 2)): 20 to 80%; pest or weed control at 1000 g/ha ([4]; second trial (Table 2)): 80 to 100%; pest or weed control at 5000 g/ha ([4]; second trial (Table 2)): 80 to 100%
"C#CCN1C(=O)C2(CC2)Oc2cc(F)c(N3C(=O)C4=C(CCCC4)C3=O)cc21 [Example 1, 2-(7-Fluoro-3-oxo-4-(prop-2-yn-1-yl)-3,4-dihydrospiro[benzo[b][1,4]oxazine-2,1′-cyclopropan]-6-yl)-4,5,6,7-tetrahydro-1H-isoindole-1,3(2H)-dione]",20 to 80,80 to 100,80 to 100,80 to 100,80 to 100,80 to 100,pest or weed control at 200 g/ha (Lolium perenne [1]; first trial (Table 1)): < 20%; pest or weed control at 1000 g/ha (Lolium perenne [1]; first trial (Table 1)): 20 to 80%; pest or weed control at 5000 g/ha (Lolium perenne [1]; first trial (Table 1)): 80 to 100%; pest or weed control at 200 g/ha ([2]; first trial (Table 1)): < 20%; pest or weed control at 1000 g/ha ([2]; first trial (Table 1)): 20 to 80%; pest or weed control at 5000 g/ha ([2]; first trial (Table 1)): 20 to 80%; pest or weed control at 200 g/ha (Lolium perenne [3]; first trial (Table 1)): 20 to 80%; pest or weed control at 1000 g/ha (Lolium perenne [3]; first trial (Table 1)): 20 to 80%; pest or weed control at 5000 g/ha (Lolium perenne [3]; first trial (Table 1)): 20 to 80%; pest or weed control at 200 g/ha (Lolium perenne [3]; second trial (Table 2)): 20 to 80%; pest or weed control at 1000 g/ha (Lolium perenne [3]; second trial (Table 2)): 20 to 80%; pest or weed control at 5000 g/ha (Lolium perenne [3]; second trial (Table 2)): 80 to 100%; pest or weed control at 200 g/ha ([4]; first trial (Table 1)): < 20%; pest or weed control at 1000 g/ha ([4]; first trial (Table 1)): < 20%; pest or weed control at 5000 g/ha ([4]; first trial (Table 1)): < 20%; pest or weed control at 200 g/ha ([4]; second trial (Table 2)): 20 to 80%; pest or weed control at 1000 g/ha ([4]; second trial (Table 2)): 80 to 100%; pest or weed control at 5000 g/ha ([4]; second trial (Table 2)): 80 to 100%
"C#CCN1C(=O)C2(CC2)Oc2cc(F)c(N3C(=O)C(=O)N(CCC)C3=S)cc21 [Example 2, 1-(7-Fluoro-3-oxo-4-(prop-2-yn-1-yl)-3,4-dihydrospiro[benzo[b][1,4]oxazine-2,1′-cyclopropan]-6-yl)-3-propyl-2-thioxoimidazolidine-4,5-dione]",< 20,< 20,< 20,20 to 80,20 to 80,20 to 80,pest or weed control at 200 g/ha (Lolium perenne [1]; first trial (Table 1)): < 20%; pest or weed control at 1000 g/ha (Lolium perenne [1]; first trial (Table 1)): < 20%; pest or weed control at 5000 g/ha (Lolium perenne [1]; first trial (Table 1)): < 20%; pest or weed control at 200 g/ha ([2]; first trial (Table 1)): 20 to 80%; pest or weed control at 1000 g/ha ([2]; first trial (Table 1)): 20 to 80%; pest or weed control at 5000 g/ha ([2]; first trial (Table 1)): 20 to 80%; pest or weed control at 200 g/ha (Lolium perenne [3]; first trial (Table 1)): < 20%; pest or weed control at 1000 g/ha (Lolium perenne [3]; first trial (Table 1)): < 20%; pest or weed control at 5000 g/ha (Lolium perenne [3]; first trial (Table 1)): < 20%; pest or weed control at 200 g/ha (Lolium perenne [3]; second trial (Table 2)): < 20%; pest or weed control at 1000 g/ha (Lolium perenne [3]; second trial (Table 2)): < 20%; pest or weed control at 5000 g/ha (Lolium perenne [3]; second trial (Table 2)): < 20%; pest or weed control at 200 g/ha ([4]; first trial (Table 1)): 20 to 80%; pest or weed control at 1000 g/ha ([4]; first trial (Table 1)): 20 to 80%; pest or weed control at 5000 g/ha ([4]; first trial (Table 1)): 20 to 80%; pest or weed control at 200 g/ha ([4]; second trial (Table 2)): 20 to 80%; pest or weed control at 1000 g/ha ([4]; second trial (Table 2)): 20 to 80%; pest or weed control at 5000 g/ha ([4]; second trial (Table 2)): 20 to 80%
O=C1N(CC2CC2)c2cc(/N=c3\sc(=O)n4n3CCCC4)c(F)cc2OC12CC2 [Example 37],20 to 80,20 to 80,80 to 100,80 to 100,80 to 100,80 to 100,–
COC(=O)C(C)N1C(=O)C2(CC2)Oc2cc(F)c(/N=c3\sc(=O)n4n3CCCC4)cc21 (stereo not drawn) [Example 38],20 to 80,20 to 80,80 to 100,80 to 100,80 to 100,80 to 100,–
"C#CCN1C(=O)C2(CC2)Oc2cc(F)c(N3C(=O)C4COCCN4C3=O)cc21 (stereo not drawn) [Example 45, 2-(7-Fluoro-3-oxo-4-(prop-2-yn-1-yl)-3,4-dihydrospiro[benzo[b][1,4]oxazine-2,1′-cyclopropan]-6-yl)tetrahydro-1H-imidazo[5,1-c][1,4]oxazine-1,3(2H)-dione]",80 to 100,80 to 100,80 to 100,80 to 100,80 to 100,80 to 100,–
O=C1C2CC(O)CN2C(=O)N1c1cc2c(cc1F)OC1(CC1)C(=O)N2CC1CC1 (stereo not drawn) [Example 46],< 20,< 20,< 20,< 20,< 20,< 20,–
O=C1C2COCCN2C(=O)N1c1cc2c(cc1F)OC1(CC1)C(=O)N2CC1CC1 (stereo not drawn) [Example 48],< 20,< 20,20 to 80,80 to 100,80 to 100,80 to 100,–
COC(=O)C(C)N1C(=O)C2(CC2)Oc2cc(F)c(N3C(=O)C4COCCN4C3=O)cc21 (stereo not drawn) [Example 49],< 20,< 20,< 20,80 to 100,80 to 100,80 to 100,–
N#CCN1C(=O)C2(CC2)Oc2cc(F)c(N3C(=O)C4COCCN4C3=O)cc21 (stereo not drawn) [Example 50],< 20,< 20,< 20,80 to 100,80 to 100,80 to 100,–
CC(C)=CCN1C(=O)C2(CC2)Oc2cc(F)c(N3C(=O)C4COCCN4C3=O)cc21 (stereo not drawn) [Example 51],< 20,< 20,< 20,80 to 100,80 to 100,80 to 100,–
O=C1C2CCCN2C(=O)N1c1cc2c(cc1F)OC1(CC1)C(=O)N2CC1CC1 (stereo not drawn) [Example 52],< 20,20 to 80,20 to 80,80 to 100,80 to 100,80 to 100,–
